# How the values were obtained:
# Format in all cases: in vivo
# Veronica persica (VERPE) [1] = test: Herbicidal post-emergence action, section E (Table E9); conditions: visual assessment ca. 3 weeks after spraying
# Description: (§1) Seeds of mono- and dicotyledonous weed plants and crop plants were sown, in plastic or organic planting pots, in sandy loam, covered with soil and grown in a greenhouse under controlled growth conditions. 2 to 3 weeks after sowing, the test plants were sprayed in the single-leaf stage. The compounds according to the invention, formulated in form of wettable powders (WP) or as emulsifiable concentrates (EC), were sprayed onto the green plant parts as aqueous suspension or emulsion, with the addition of 0.5% of an additive, at an application rate of 600 l of water/ha (converted). The test plants were placed in the greenhouse for ca. 3 weeks under optimum growth conditions, and then the effect of the preparations was assessed visually in comparison with untreated controls (herbicidal effect in percent (%): 100% effect=plants have died off, 0% effect=as control plants).
# Glycine max (GLXMA) = test: Pre-emergence effects on crop plants, section D (Table D4); conditions: visual grading after ca. 3 weeks
# How it was run: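 Formulated compound (wettable powder or emulsifiable concentrate) was applied pre-emergence to the soil surface at 320 g/ha or lower. Greenhouse-grown plants were rated visually for percent damage after ca. 3 weeks.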
# [2] = tested on: Amaranthus retroflexus (AMARE); test: Herbicidal post-emergence action, section E (Table E3); conditions: Amaranthus retroflexus, post-emergence, 504 h; application rate 320 g/ha; assessed visually after ca. 3 weeks; read-out: post-emergence activity against AMARE in %
# Description: as §1
# [3] = tested on: Alopecurus myosuroides (ALOMY); test: Herbicidal pre-emergence action, section C (Table C2); conditions: visual grading after ca. 3 weeks vs untreated controls; for pest or weed control at 320 g/ha / pest or weed control at 80 g/ha: Alopecurus myosuroides, pre-emergence, 504 h, read-out: pre-emergence activity against ALOMY in %; for pest or weed control at 320 g/ha / pre-emergence activity against ALOMY in %: application rate 320 g/ha; for pest or weed control at 80 g/ha: application rate 80 g/ha
# Description: (§2) Seeds of mono- and dicotyledonous weed plants and crop plants were sown, in plastic or organic planting pots, in sandy loam and covered with soil. The compounds according to the invention, formulated in the form of wettable powders (WP) or as emulsifiable concentrates (EC), were applied to the surface of the covering soil as aqueous suspension or emulsion, with the addition of 0.5% of an additive, at an application rate of 600 l of water/ha (converted). Following treatment, the pots were placed in a greenhouse and kept under optimum growth conditions for the test plants. The visual grading of the damage to the test plants was carried out after ca. 3 weeks in comparison to untreated controls (herbicidal effect in percent (%): 100% effect=plants have died off, 0% effect=as control plants).
# Lolium rigidum (LOLRI) [4] = test: Herbicidal pre-emergence action, section A (Table A5); conditions: visual grading after ca. 3 weeks vs untreated controls; for pest or weed control at 320 g/ha / pest or weed control at 1280 g/ha: Lolium rigidum, pre-emergence, 504 h, read-out: pre-emergence activity against LOLRI in %
# How it was run: (§3)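 Sandy loam pots, seeds covered with soil, treated on the soil surface with aqueous WP or EC preparations containing 0.5% additive (600 l/ha). Visual damage rating after ca. 3 weeks in greenhouse; scale 0% (as control) to 100% (plants died off).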
# Setaria viridis (SETVI) = test: Herbicidal post-emergence action, section B (Table B8); conditions: application rate 1280 g/ha, visual rating about 3 weeks after treatment vs untreated controls; for pest or weed control at 1280 g/ha: Setaria viridis, post-emergence, 504 h, read-out: post-emergence activity against SETVI in %
# How it was run: (§4)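 Potted weeds in sandy loam are treated post-emergence at the one-leaf stage, 2 to 3 weeks after sowing. The spray is an aqueous WP or EC preparation with 0.5% additive at 600 liters per hectare. Percent activity is assessed by eye after about 3 weeks versus untreated controls.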
# [5] = tested on: Amaranthus retroflexus (AMARE); test: Herbicidal pre-emergence action, section A (Table A11)
# How it was run: as §3
# Stellaria media (STEME) = test: Herbicidal post-emergence action, section B (Table B9); conditions: visual rating about 3 weeks after treatment vs untreated controls; for pest or weed control at 320 g/ha / pest or weed control at 1280 g/ha: Stellaria media, post-emergence, 504 h, read-out: post-emergence activity against STEME in %
# How it was run: as §4
# Lolium rigidum (LOLRI) [6] = test: Herbicidal post-emergence action, section B (Table B5); conditions: visual rating about 3 weeks after treatment vs untreated controls; for pest or weed control at 1280 g/ha: Lolium rigidum, post-emergence, 504 h, read-out: post-emergence activity against LOLRI in %
# Protocol: Seeds of mono- and dicotyledonous weed plants were placed in plastic pots in sandy loam soil (doubly sown with in each case one species of mono- or dicotyledonous weed plants per pot), covered with soil and cultivated in a greenhouse under controlled growth conditions. 2 to 3 weeks after sowing, the test plants were treated at the one-leaf stage. The compounds of the invention, formulated in the form of wettable powders (WP) or as emulsion concentrates (EC), were applied onto the green parts of the plants as aqueous suspension or emulsion with addition of 0.5% additive at a water application rate of 600 liters per hectare (converted). After the test plants had been kept in the greenhouse under optimum growth conditions for about 3 weeks, the activity of the preparations was rated visually in comparison to untreated controls. For example, 100% activity=the plants have died, 0% activity=like control plants.
# Veronica persica (VERPE) [7] = test: Herbicidal post-emergence action, section B (Table B10); conditions: visual rating about 3 weeks after treatment vs untreated controls
# How it was run: as §4
# [8] = tested on: Abutilon theophrasti (ABUTH); test: Herbicidal pre-emergence action, section C (Table C1); conditions: application rate 320 g/ha, visual grading after ca. 3 weeks vs untreated controls
# Description: as §2
# [9] = Amaranthus retroflexus, 504 h, application rate 320 g/ha, read-out: pre-emergence activity against AMARE in %
# [10] = Veronica persica, post-emergence, 504 h, application rate 320 g/ha, read-out: post-emergence activity against VERPE in %
# [11] = Veronica persica, 504 h, application rate 320 g/ha, read-out: post-emergence activity against VERPE in %
SMILES,pre-emergence activity against GLXMA in % (crop plant damage) (Glycine max (GLXMA); application rate 320 g/ha) [%],pest or weed control at 320 g/ha [2] [%],pest or weed control at 320 g/ha [3] [%],pre-emergence activity against LOLRI in % (Lolium rigidum (LOLRI) [4]; application rate 320 g/ha) [%],post-emergence activity against SETVI in % (Setaria viridis (SETVI)) [%],post-emergence activity against STEME in % (Stellaria media (STEME); application rate 1280 g/ha) [%],post-emergence activity against LOLRI in % (Lolium rigidum (LOLRI) [6]; application rate 1280 g/ha) [%],pre-emergence activity against ALOMY in % [3] [%],"pest or weed control at 320 g/ha [5, 9] [%]",pest or weed control at 320 g/ha (Veronica persica (VERPE) [1]; [11]) [%],pre-emergence activity against AMARE in % ([5]; application rate 320 g/ha) [%],further results
"Fc1ccccc1-c1nc2c(cc1Br)SCN2 [Example I-001, 6-bromo-5-(2-fluorophenyl)-2,3-dihydro[1,3]thiazolo[4,5-b]pyridine]",0,80,100,,,,,,,,,"pest or weed control at 80 g/ha (Veronica persica (VERPE) [1]; Veronica persica, 504 h, application rate 80 g/ha, read-out: post-emergence activity against VERPE in %): 80%"
COC(=O)CCC(=O)N1CSc2cc(Cl)c(-c3ccccc3F)nc21 [Example I-003],,,,100,90,90,90,80,,,,pre-emergence activity against AMARE in % ([5]; application rate 1280 g/ha): 90%; post-emergence activity against VERPE in % (Veronica persica (VERPE) [7]; application rate 320 g/ha): 100%
BN1CSc2cc(Br)c(-c3ccccc3C)nc21 [Example I-011],0,,,100,90,90,,90,,,,pre-emergence activity against AMARE in % ([5]; application rate 1280 g/ha): 90%; post-emergence activity against VERPE in % (Veronica persica (VERPE) [7]; application rate 1280 g/ha): 90%
"Cc1cc2c(nc1-c1cccc(F)c1F)NCS2 [Example I-029, 5-(2,3-difluorophenyl)-6-methyl-2,3-dihydro[1,3]thiazolo[4,5-b]pyridine]",,80,,,,,,,90,,,"pest or weed control at 320 g/ha (Lolium rigidum (LOLRI) [4]; application rate 320 g/ha): 100%; pest or weed control at 1280 g/ha (Setaria viridis (SETVI)): 90%; pest or weed control at 320 g/ha (Stellaria media (STEME); application rate 320 g/ha): 90%; pest or weed control at 1280 g/ha (Lolium rigidum (LOLRI) [6]; application rate 1280 g/ha): 90%; pre-emergence activity against GLXMA in % (crop plant damage) (Glycine max (GLXMA); application rate 80 g/ha): 10%; pest or weed control at 1280 g/ha (Veronica persica (VERPE) [7]; Veronica persica, post-emergence, 504 h, application rate 1280 g/ha, read-out: post-emergence activity against VERPE in %): 90%; pest or weed control at 80 g/ha [3]: 100%"
"Clc1ccccc1-c1nc2c(cc1Br)SCN2 [Example I-041, 6-bromo-5-(2-chlorophenyl)-2,3-dihydro[1,3]thiazolo[4,5-b]pyridine]",,,80,,,,,,90,,,pest or weed control at 1280 g/ha (Lolium rigidum (LOLRI) [4]; application rate 1280 g/ha): 100%; pest or weed control at 1280 g/ha (Setaria viridis (SETVI)): 90%; pest or weed control at 320 g/ha (Stellaria media (STEME); application rate 320 g/ha): 90%; pest or weed control at 1280 g/ha (Lolium rigidum (LOLRI) [6]; application rate 1280 g/ha): 90%; pest or weed control at 320 g/ha (Veronica persica (VERPE) [7]; [10]): 90%
CCc1ccccc1-c1nc2c(cc1C)[S+]([O-])CN2 (stereo not drawn) [Example I-047],20,,,,,,,,,80,,"pest or weed control at 1280 g/ha ([5]; Amaranthus retroflexus, 504 h, application rate 1280 g/ha, read-out: pre-emergence activity against AMARE in %): 90%; pest or weed control at 1280 g/ha (Stellaria media (STEME); application rate 1280 g/ha): 90%; pest or weed control at 320 g/ha (Veronica persica (VERPE) [7]; [10]): 90%"
CC(C)C(=O)N1C[S+]([O-])c2cc(Br)c(-c3ccccc3)nc21 (stereo not drawn) [Example I-067],,80,90,,,,,,,90,,pre-emergence activity against GLXMA in % (crop plant damage) (Glycine max (GLXMA); application rate 80 g/ha): 20%
CCS(=O)(=O)N1C[S+]([O-])c2cc(C)c(-c3ccccc3C)nc21 (stereo not drawn) [Example I-074],0,,,,,,,,90,90,,pest or weed control at 320 g/ha (Lolium rigidum (LOLRI) [4]; application rate 320 g/ha): 100%; pest or weed control at 1280 g/ha (Setaria viridis (SETVI)): 90%; pest or weed control at 1280 g/ha (Stellaria media (STEME); application rate 1280 g/ha): 90%; pest or weed control at 320 g/ha (Veronica persica (VERPE) [7]; [10]): 90%; pest or weed control at 80 g/ha [3]: 80%
Cc1cc2c(nc1-c1ccccc1)N(C(=O)C1(C)CC(Cl)=NO1)CS2 (stereo not drawn) [Example I-088],,,,100,90,,90,90,,,90,post-emergence activity against VERPE in % (Veronica persica (VERPE) [1]; application rate 320 g/ha): 80%; post-emergence activity against STEME in % (Stellaria media (STEME); application rate 320 g/ha): 90%; post-emergence activity against VERPE in % (Veronica persica (VERPE) [7]; application rate 1280 g/ha): 90%; pre-emergence activity against ABUTH in % [8]: 90%
Cc1cc2c(nc1-c1ccccc1F)N(C(=O)C13CCCC1C(Cl)=NO3)CS2 (stereo not drawn) [Example I-104],,,,100,90,,,100,,,90,post-emergence activity against VERPE in % (Veronica persica (VERPE) [1]; application rate 80 g/ha): 80%; post-emergence activity against STEME in % (Stellaria media (STEME); application rate 320 g/ha): 90%; post-emergence activity against LOLRI in % (Lolium rigidum (LOLRI) [6]; application rate 320 g/ha): 90%; post-emergence activity against VERPE in % (Veronica persica (VERPE) [7]; application rate 320 g/ha): 90%; pre-emergence activity against ABUTH in % [8]: 80%
Cc1cc2c(nc1-c1cccc(C)c1F)NCS2 [Example I-113],10,,,,,90,90,,,,90,pre-emergence activity against LOLRI in % (Lolium rigidum (LOLRI) [4]; application rate 1280 g/ha): 100%
Cc1cc2c(nc1-c1ccccc1F)N(S(=O)(=O)Cc1ccc(F)cc1)CS2 [Example I-122],,,,100,90,90,90,100,,,90,post-emergence activity against VERPE in % (Veronica persica (VERPE) [1]; application rate 320 g/ha): 90%; pre-emergence activity against GLXMA in % (crop plant damage) (Glycine max (GLXMA); application rate 80 g/ha): 10%; post-emergence activity against VERPE in % (Veronica persica (VERPE) [7]; application rate 320 g/ha): 90%
"CC1(C(=O)N2CSc3cc(Br)c(-c4ccccc4Cl)nc32)CC(Cl)=NO1 (stereo not drawn) [Example I-141, [6-bromo-5-(2-chlorophenyl)[1,3]thiazolo[4,5-b]pyridin-3(2H)-yl](3-chloro-5-methyl-4,5-dihydro-1,2-oxazol-5-yl)methanone]",,80,80,,,,,,100,80,,"pest or weed control at 1280 g/ha (Lolium rigidum (LOLRI) [4]; application rate 1280 g/ha): 100%; pest or weed control at 1280 g/ha (Stellaria media (STEME); application rate 1280 g/ha): 90%; pest or weed control at 320 g/ha ([8]; Abutilon theophrasti, pre-emergence, 504 h, read-out: pre-emergence activity against ABUTH in %): 90%"

# — patent US20240381872A1, “SUBSTITUTED 2,3-DIHYDRO[1,3]THIAZOLO[4,5-B]PYRIDINES, SALTS THEREOF AND THEIR USE AS HERBICIDALLY ACTIVE SUBSTANCES” (BAYER AKTIENGESELLSCHAFT, priority 2021, published 2024)
